System: Brca1 and Brca2 wild type and mutant ES cells
Experiment: FACS analysis of cell cycle arrest (DNA content, phospho-histone H3)
Assay type: cell-based, mouse
Protocol: For DNA content measurement, cells were fixed in 70% ethanol, incubated with Rnase A and propidium iodide (PI) and analysed with a FACSCalibur (Becton Dickinson). For phospho-Histone H3 analysis, cells were fixed in 70% ethanol, permeabilised with 0.25% triton X-100, incubated with anti-phospho-histone H3 antibody (Upstate Biotechnology) for 3 hours, and then with FITC-anti rabbit IgG (Serotec) for 30 minutes.
Cells were exposed with KU0058684 for various periods then labelled with BrdU and the proportion of cells in each phase of the cell cycle. […] To further characterise this arrest, cells were analysed for both DNA content and for phosphorylated Histone H3, an M phase marker. […]

O=C1CCC(=O)N1c1cc(Cc2n[nH]c(=O)c3ccccc23)ccc1F [KU0058684]
cell cycle arrest (DNA content, FACS): profound arrest of cells with a tetraploid DNA content | phase of arrest (phospho-histone H3 labelling): majority of cells were arrested in G2
